According to paper PMC6277767, “Broad and Region-Specific Impacts of the Synthetic Cannabinoid CP 55,940 in Adolescent and Adult Female Mouse Brains” (Frontiers in Molecular Neuroscience, 2018):

System: CD1 female mouse brain lipidome
Experiment: Brain-region lipid levels (HPLC/MS/MS lipidomics) 2 h after single i.p. 3 mg/kg CP 55,940 vs vehicle
Assay type: in vivo
Method: The Bloomington Institutional Animal Care and Use Committee of Indiana University reviewed and approved the animal procedures. Female mice from the CD1 strain were utilized to match our study examining THC’s effects on the brain lipidome ([Leishman et al., 2018]). Mice were given a single i.p. injection of either 3 mg/kg CP or 1:1:18 cremophor:ethanol:saline vehicle (please refer to the section “3 mg/kg CP Is Relevant for Synthetic Cannabinoid Abuse and Has Stronger Effects on the Female Mouse Brain Lipidome During Adolescence” for a justification of dose and use of female mice). Three different age groups were given injections: PND 35 and PND 50 adolescents, and adult mice (PND 113). At least eight mice in each age group received CP and at least eight received vehicle. Matching the THC study time course ([Leishman et al., 2018]), mice were sacrificed via rapid decapitation 2 h after injection. Brains were immediately removed and flash-frozen in liquid nitrogen, and then stored at -80°C until dissections were performed. Brains were dissected on an ice-cold dissection plate into the following regions: STR, HIPP, CER, THAL, CTX, HYP, MID, and STEM. These abbreviations for these brain areas will be used exclusively when discussing the results generated by these specific dissections. Each dissected area was immediately placed in liquid nitrogen and then stored at -80°C until used for lipid extraction.
Tissue extracts were performed as previously described ([Bradshaw et al., 2006]; [Stuart et al., 2013]; [Raboune et al., 2014]; [Leishman et al., 2016a],[b], [2017], [2018]). First, samples were shock frozen in liquid nitrogen, weighed, and transferred to a centrifuge tube. The mass of the largest sample was multiplied by 50 to determine how many milliliters of HPLC-grade methanol (Fisher, Fair Lawn, NJ, United States) to add. Then, samples were spiked with 500 pmol deuterium-labeled NAGly (d8NAGly; Cayman Chemical, Ann Arbor, MI, United States). Samples were placed on ice in darkness for 2 h then individually homogenized and centrifuged at 19,000 × g for 20 min at 20°C. Supernatants were diluted with HPLC water (purified in house) to make a solution of 75% water, 25% supernatant. Lipids were partially purified on C18 solid phase extraction columns (Agilent, Palo Alto, CA, United States). A series of four elutions with 1.5 mL of 60%, 75%, 85%, and 100% methanol were collected ([Stuart et al., 2013]; [Leishman et al., 2016a],[b], [2018]).
As previously described ([Bradshaw et al., 2006]; [Tan et al., 2006]; [Smoum et al., 2010]; [Stuart et al., 2013]; [Tortoriello et al., 2013]; [Raboune et al., 2014]; [Leishman et al., 2016a],[b], [2017], [2018]), samples were analyzed using an Applied Biosystems API 3000 triple quadrupole mass spectrometer with electrospray ionization (Foster City, CA, United States). Using an Agilent XDB-C18 reversed phase analytical column and optimized mobile phase gradients, 20 μL from each elution were chromatographed. Two Shimadzu 10ADvp pumps (Columbia, MD, United States) provided the pressure for gradient elution. Mobile phase A: 20% methanol, 80% water (v/v) and 1 mM ammonium acetate (Sigma, St. Louis, MO, United States). Mobile phase B: 100% methanol, 1 mM ammonium acetate. Every method run began with 0% mobile phase B, reached 100% mobile phase B flowing at 0.2 mL/min, and gradually returned to 0% mobile phase B.
This screening library will be referred to as the lipidome when discussing data from this study. HPLC/MS/MS data were analyzed using Analyst software (Applied Biosystems) ([Bradshaw et al., 2006]; [Tan et al., 2006]; [Stuart et al., 2013]; [Tortoriello et al., 2013]; [Raboune et al., 2014]; [Leishman et al., 2016a],[b], [2017], [2018]). Chromatograms (Supplementary Figure 3) were generated by determining the retention time of analytes from the analytical column with a [M-1] or [M+1] parent peak and a fragmentation peak corresponding to the programmed values. […]

CCCCCCC(C)(C)c1ccc([C@@H]2C[C@H](O)CC[C@H]2CCCO)c(O)c1 [CP 55,940]
N-stearoyl leucine mean level (PND 35 striatum): 9.98E-13 moles per gram
N-stearoyl methionine mean level (PND 35 striatum): 1.31E-12 moles per gram
N-stearoyl phenylalanine mean level (PND 35 striatum): 1.28E-12 moles per gram
N-stearoyl serine mean level (PND 35 striatum): 1.89E-11 moles per gram
N-stearoyl tryptophan mean level (PND 35 striatum): 5.77E-13 moles per gram
Oleic acid mean level (PND 35 striatum): 1.18E-09 moles per gram
PGE2 mean level (PND 35 striatum): 3.74E-10 moles per gram
PGF2α mean level (PND 35 striatum): 2.8E-10 moles per gram
PhosphoLEA mean level (PND 35 striatum): 1.91E-11 moles per gram
total changes in lipid levels across the eight regions (PND 50): 141
changes in lipid levels that were decreases (PND 50, eight regions): 110
2-linoleoyl glycerol level vs vehicle (PND 50 CER): ↓↓ (1.50-1.99 times lower than vehicle)
2-oleoyl glycerol level vs vehicle (PND 50 CER): ↓ (1-1.49 times lower than vehicle)
2-palmitoyl glycerol level vs vehicle (PND 50 CER): ↓ (1-1.49 times lower than vehicle)
6-ketoPGF1α level vs vehicle (PND 50 CER): ↑ (1-1.49 times higher than vehicle)
Arachidonic acid level vs vehicle (PND 50 CER): ↓ (1-1.49 times lower than vehicle)
Linoleic acid level vs vehicle (PND 50 CER): ↓ (1-1.49 times lower than vehicle)
N-arachidonoyl GABA level vs vehicle (PND 50 CER): ↓ (1-1.49 times lower than vehicle)
N-arachidonoyl ethanolamine level vs vehicle (PND 50 CER): ↓ (1-1.49 times lower than vehicle)
N-arachidonoyl glycine level vs vehicle (PND 50 CER): ↓ (1-1.49 times lower than vehicle)
N-arachidonoyl phenylalanine level vs vehicle (PND 50 CER): ↓↓ (1.50-1.99 times lower than vehicle)
N-arachidonoyl serine level vs vehicle (PND 50 CER): ↓ (1-1.49 times lower than vehicle)
N-arachidonoyl taurine level vs vehicle (PND 50 CER): ↓ (1-1.49 times lower than vehicle)
N-arachidonoyl tyrosine level vs vehicle (PND 50 CER): ↓ (1-1.49 times lower than vehicle)
N-docosahexaenoyl phenylalanine level vs vehicle (PND 50 CER): ↓ (1-1.49 times lower than vehicle)
N-linoleoyl ethanolamine level vs vehicle (PND 50 CER): ↓ (1-1.49 times lower than vehicle)
N-oleoyl GABA level vs vehicle (PND 50 CER): ↓ (1-1.49 times lower than vehicle)
N-oleoyl ethanolamine level vs vehicle (PND 50 CER): ↓ (1-1.49 times lower than vehicle)
N-oleoyl phenylalanine level vs vehicle (PND 50 CER): ↑ (1-1.49 times higher than vehicle)
N-palmitoyl leucine level vs vehicle (PND 50 CER): ↑↑ (1.50-1.99 times higher than vehicle)
N-palmitoyl valine level vs vehicle (PND 50 CER): ↑ (1-1.49 times higher than vehicle)
Oleic Acid level vs vehicle (PND 50 CER): ↓ (1-1.49 times lower than vehicle)
PGE2 level vs vehicle (PND 50 CER): ↓ (1-1.49 times lower than vehicle)
PGF2α level vs vehicle (PND 50 CER): ↓ (1-1.49 times lower than vehicle)
2-linoleoyl glycerol level vs vehicle (PND 50 CTX): ↓ (1-1.49 times lower than vehicle)
2-oleoyl glycerol level vs vehicle (PND 50 CTX): ↓ (1-1.49 times lower than vehicle)
Arachidonic acid level vs vehicle (PND 50 CTX): ↓ (1-1.49 times lower than vehicle)
Linoleic acid level vs vehicle (PND 50 CTX): ↓↓ (1.50-1.99 times lower than vehicle)
N- stearoyl valine level vs vehicle (PND 50 CTX): ↑ (1-1.49 times higher than vehicle)
N-arachidonoyl GABA level vs vehicle (PND 50 CTX): ↓ (1-1.49 times lower than vehicle)
N-arachidonoyl alanine level vs vehicle (PND 50 CTX): ↓ (1-1.49 times lower than vehicle)
N-arachidonoyl ethanolamine level vs vehicle (PND 50 CTX): ↓ (1-1.49 times lower than vehicle)
N-arachidonoyl phenylalanine level vs vehicle (PND 50 CTX): ↓ (1-1.49 times lower than vehicle)
N-arachidonoyl taurine level vs vehicle (PND 50 CTX): ↓ (1-1.49 times lower than vehicle)
N-docosahexaenoyl ethanolamine level vs vehicle (PND 50 CTX): ↓ (1-1.49 times lower than vehicle)
N-linoleoyl ethanolamine level vs vehicle (PND 50 CTX): ↓ (1-1.49 times lower than vehicle)
N-oleoyl ethanolamine level vs vehicle (PND 50 CTX): ↓↓ (1.50-1.99 times lower than vehicle)
N-oleoyl serine level vs vehicle (PND 50 CTX): ↑ (1-1.49 times higher than vehicle)
N-palmitoyl leucine level vs vehicle (PND 50 CTX): ↑ (1-1.49 times higher than vehicle)
N-palmitoyl methionine level vs vehicle (PND 50 CTX): ↑ (1-1.49 times higher than vehicle)
N-palmitoyl phenylalanine level vs vehicle (PND 50 CTX): ↑ (1-1.49 times higher than vehicle)
N-palmitoyl tyrosine level vs vehicle (PND 50 CTX): ↑ (1-1.49 times higher than vehicle)
N-palmitoyl valine level vs vehicle (PND 50 CTX): ↑ (1-1.49 times higher than vehicle)
N-stearoyl phenylalanine level vs vehicle (PND 50 CTX): ↑ (1-1.49 times higher than vehicle)
PGE2 level vs vehicle (PND 50 CTX): ↓ (1-1.49 times lower than vehicle)
2-linoleoyl glycerol level vs vehicle (PND 50 HIPP): ↓ (1-1.49 times lower than vehicle)
6-ketoPGF1α level vs vehicle (PND 50 HIPP): ↑ (1-1.49 times higher than vehicle)
Linoleic acid level vs vehicle (PND 50 HIPP): ↓ (1-1.49 times lower than vehicle)
N-arachidonoyl alanine level vs vehicle (PND 50 HIPP): ↓ (1-1.49 times lower than vehicle)
N-arachidonoyl ethanolamine level vs vehicle (PND 50 HIPP): ↓↓ (1.50-1.99 times lower than vehicle)
N-arachidonoyl glycine level vs vehicle (PND 50 HIPP): ↓↓ (1.50-1.99 times lower than vehicle)
N-arachidonoyl serine level vs vehicle (PND 50 HIPP): ↓↓ (1.50-1.99 times lower than vehicle)
N-arachidonoyl taurine level vs vehicle (PND 50 HIPP): ↓ (1-1.49 times lower than vehicle)
N-arachidonoyl tyrosine level vs vehicle (PND 50 HIPP): ↑ (1-1.49 times higher than vehicle)
N-docosahexaenoyl ethanolamine level vs vehicle (PND 50 HIPP): ↓ (1-1.49 times lower than vehicle)
N-linoleoyl ethanolamine level vs vehicle (PND 50 HIPP): ↓↓ (1.50-1.99 times lower than vehicle)
N-linoleoyl serine level vs vehicle (PND 50 HIPP): ↑ (1-1.49 times higher than vehicle)
N-oleoyl leucine level vs vehicle (PND 50 HIPP): ↓ (1-1.49 times lower than vehicle)
N-oleoyl serine level vs vehicle (PND 50 HIPP): ↑ (1-1.49 times higher than vehicle)
PGE2 level vs vehicle (PND 50 HIPP): ↑ (1-1.49 times higher than vehicle)
PGF2α level vs vehicle (PND 50 HIPP): ↑ (1-1.49 times higher than vehicle)
2-arachidonoyl glycerol level vs vehicle (PND 50 HYP): ↓ (1-1.49 times lower than vehicle)
N-arachidonoyl phenylalanine level vs vehicle (PND 50 HYP): ↓ (1-1.49 times lower than vehicle)
N-palmitoyl leucine level vs vehicle (PND 50 HYP): ↑ (1-1.49 times higher than vehicle)
PGF2α level vs vehicle (PND 50 HYP): ↑ (1-1.49 times higher than vehicle)
number of lipids changed (PND 50 HYP, 49 detected): four
2-linoleoyl glycerol level vs vehicle (PND 50 MID): ↓ (1-1.49 times lower than vehicle)
2-oleoyl glycerol level vs vehicle (PND 50 MID): ↓ (1-1.49 times lower than vehicle)
6-ketoPGF1α level vs vehicle (PND 50 MID): ↓ (1-1.49 times lower than vehicle)
Linoleic acid level vs vehicle (PND 50 MID): ↓ (1-1.49 times lower than vehicle)
N-arachidonoyl GABA level vs vehicle (PND 50 MID): ↓ (1-1.49 times lower than vehicle)
N-arachidonoyl alanine level vs vehicle (PND 50 MID): ↓↓ (1.50-1.99 times lower than vehicle)
N-arachidonoyl ethanolamine level vs vehicle (PND 50 MID): ↓ (1-1.49 times lower than vehicle)
N-arachidonoyl glycine level vs vehicle (PND 50 MID): ↓↓ (1.50-1.99 times lower than vehicle)
N-arachidonoyl methionine level vs vehicle (PND 50 MID): ↓↓ (1.50-1.99 times lower than vehicle)
N-arachidonoyl phenylalanine level vs vehicle (PND 50 MID): ↓ (1-1.49 times lower than vehicle)
N-arachidonoyl tyrosine level vs vehicle (PND 50 MID): ↓ (1-1.49 times lower than vehicle)
N-docosahexaenoyl GABA level vs vehicle (PND 50 MID): ↓ (1-1.49 times lower than vehicle)
N-docosahexaenoyl ethanolamine level vs vehicle (PND 50 MID): ↓ (1-1.49 times lower than vehicle)
N-docosahexaenoyl leucine level vs vehicle (PND 50 MID): ↑ (1-1.49 times higher than vehicle)
N-linoleoyl ethanolamine level vs vehicle (PND 50 MID): ↓ (1-1.49 times lower than vehicle)
N-oleoyl ethanolamine level vs vehicle (PND 50 MID): ↓ (1-1.49 times lower than vehicle)
N-oleoyl methionine level vs vehicle (PND 50 MID): ↓↓ (1.50-1.99 times lower than vehicle)
N-palmitoyl alanine level vs vehicle (PND 50 MID): ↓ (1-1.49 times lower than vehicle)
N-palmitoyl ethanolamine level vs vehicle (PND 50 MID): ↓ (1-1.49 times lower than vehicle)
N-palmitoyl leucine level vs vehicle (PND 50 MID): ↑ (1-1.49 times higher than vehicle)
N-palmitoyl serine level vs vehicle (PND 50 MID): ↓ (1-1.49 times lower than vehicle)
N-stearoyl methionine level vs vehicle (PND 50 MID): ↓ (1-1.49 times lower than vehicle)
N-stearoyl phenylalanine level vs vehicle (PND 50 MID): ↓ (1-1.49 times lower than vehicle)
Oleic Acid level vs vehicle (PND 50 MID): ↓ (1-1.49 times lower than vehicle)
PGE2 level vs vehicle (PND 50 MID): ↓ (1-1.49 times lower than vehicle)
PGF2α level vs vehicle (PND 50 MID): ↓ (1-1.49 times lower than vehicle)
